These results are taken from patent publication US6949648B2, “Condensed pyrazole derivatives, process for producing the same and use thereof” (Takeda Pharmaceutical Company Limited, priority 2000, dated 2005).

Each structure is given as a SMILES string. Where a name gives a salt, the structure may show the parent alone.

One data set relates to OVA-specific IgE. Kind of data set: Effect on antibody production of ovalbumin-sensitized mice: IgE. The data set is classed as in vivo, BALB/c mouse. Conditions: Mus musculus, po, 264 h; 30 mg/kg b.w. orally, 5 days a week during 9-day period; serum 11 days after first sensitization, ELISA; read-out: Suppression Rate (%) IgE. The procedure: (§1) Effect on Antibody Production of Mice Sensitized by Controlled-Release Ovalbumin
(§2) A male BALB/c mouse (Charles River) of 7 weeks old was sensitized by intraabdominal administration, twice at an interval of a week, of a mixture of 10 μg/mouse of ovalbumin (OVA; albumin chicken egg grade III; Sigma Chemical) and 1 mg of aluminum hydroxide hydrate gel suspension (Alum; LSL Co. LTD.). After 11 days from the first sensitization, blood was collected from beneath eye under ether anesthesia, and the amount of OVA-specific IgE, IgG1 (Th2 type) and IgG2a (Th1 type) antibodies in the serum were determined by the ELISA method. A sample compound (30 mg/kg b.w.) was suspended in 0.4 ml of methylcellulose (MC), and the suspension was orally administered, 5 days a week during the 9-day period from the initiation day of sensitization to the day before the day of blood sample collection (1 Group, n=8 to 10).
Background: In an ELISA, binding on a coated surface is turned into a signal by an enzyme label.

The test system of data set [1] is OVA-specific IgG2a (Th1 type). Kind of data set: Effect on antibody production of ovalbumin-sensitized mice: IgG2a. The class given is in vivo, BALB/c mouse. The conditions noted are these: Mus musculus, po, 264 h; 30 mg/kg b.w. orally, 5 days a week during 9-day period; serum 11 days after first sensitization, ELISA; read-out: Suppression Rate (%) IgG2a. The procedure: as §1, §2

In the next data set the test system is IL-4. The data set is described as follows: Effect on cytokine production of mice sensitized by controlled-release ovalbumin: IL-4. The class given is in vivo, BALB/c mouse. Conditions: Mus musculus, po; 30 mg/kg b.w. orally, 5 days a week during 9-day period; splenic cells incubated with OVA 3 days, ELISA; read-out: Suppression Rate (%) IL-4. The method, then: (§3) Effect on Cytokine Production of Mice Sensitized by Controlled-Release Ovalbumin
(§4) An osmotic pump (Alza Co., USA) containing a solution (100 μL) containing 1.0 mg of ovalbumin (OVA; albumin chicken egg grade III, Sigma Chemical) was implanted in the back of a male BALB/c mouse (Charles River) of 8 weeks old under ether anesthesia, and the mouse is sensitized by the controlled-release ovalbumin. After 11 days from implantation of the pump, a sample of spleen was removed, and a splenic cell suspension was prepared by the use of the RPMI-1640 medium (Bio Whittaker Inc., USA) containing inactivated fetal bovine serum (10% V/V; Bio Whittaker Inc., USA), 2-mercaptoethanol (50 μM), and gentamicin (20 μg/ml). A sample compound (30 mg/kg b.w.) was suspended in 0.4 ml of methylcellulose (MC), and the suspension was orally administered, 5 days a week during the 9-day period from the initiation day of sensitization to the day before the day of blood sample collection (1 Group, n=10). The splenic cell suspension was adjusted to a concentration of 5.0×10^6 cells/ml, and the resulting suspension (100 μl) was pipetted onto a 96 well U-bottomed plate, each of the wells containing a solution (100 μl/well) of 400 μg/ml OVA, and the plate was incubated at 37° C. in a 5% carbon dioxide gas incubator for 3 days. The cultured media were centrifuged at 200×g for 5 minutes, and the supernatants were collected and the production of IL-4, IL-5 and IFN-γ in each of the supernatants was determined by the ELISA method [Mouse IL-4 Bulk Kit (PerSeptive Biosystems), Mouse IL-5 Bulk Kit (PerSeptive Biosystems), and Mouse IFN-γ Bulk Kit (PerSeptive Biosystems)].

A further data set has as its system IL-5. Kind of data set: Effect on cytokine production of mice sensitized by controlled-release ovalbumin: IL-5. The data set is classed as in vivo, BALB/c mouse. The conditions noted are these: Mus musculus, po; 30 mg/kg b.w. orally, 5 days a week during 9-day period; splenic cells incubated with OVA 3 days, ELISA; read-out: Suppression Rate (%) IL-5. The method, then:
as §3, §4

For another data set, the system named is IFN-γ. Kind of data set: Effect on cytokine production of mice sensitized by controlled-release ovalbumin: IFN-γ. The data set is classed as in vivo, BALB/c mouse. Conditions: Mus musculus, po; 30 mg/kg b.w. orally, 5 days a week during 9-day period; splenic cells incubated with OVA 3 days, ELISA; read-out: Suppression Rate (%) IFN-γ. The procedure:
as §3, §4

As usually defined, the melting point is the temperature of the solid-liquid transition.

`Cc1nn(-c2ccccn2)c2[nH]c3ccccc3c(=S)c12` [Example 1-42, 3-Methyl-1-(2-pyridinyl)-1,9-dihydro-4H-pyrazolo[3,4-b]quinolin-4-thione] yielded a melting point of 252 to 253 °C. In addition, the inhibition in vivo at 30 mg/kg in the data set with OVA-specific IgE stood at 24%. In data set [1], the inhibition in vivo at 30 mg/kg worked out at 14.3%.
Consider `CCOc1cccc(-n2nc(C)c3c(=O)c4cccc(C)c4[nH]c32)n1` [Example 1-61, 3,8-Dimethyl-1-(6-ethoxy-2-pyridinyl)-1,9-dihydro-4H-pyrazolo[3,4-b]quinolin-4-one], for which the results for the inhibition in vivo at 30 mg/kg with IL-4, in the data set on IL-5 and in the data set with IFN-γ were 16%, 26.1% and -8.7%, respectively.
`Cc1nn(-c2ccccn2)c2nc(O)c3c(c12)CCCC3` [Example 1-29, 1-Methyl-3-(2-pyridinyl)-6,7,8,9-tetrahydro-3H-pyrazolo[3,4-c]isoquinolin-5-ol] came in with a melting point of 248 to 249 °C. In addition, the inhibition in vivo at 30 mg/kg with OVA-specific IgE is 19.1%. For the same compound, the inhibition in vivo at 30 mg/kg in data set [1] is -22.6%.
Compound `Cc1nn(-c2ccccn2)c2nc3ccccc3c(N(C)C)c12` [Example 1-38, N,N-Dimethyl-N-[3-methyl-1-(2-pyridinyl)-1H-pyrazolo[3,4-b]quinolin-4-yl]amine] had a melting point of 98 to 101 °C. Moreover, the inhibition in vivo at 30 mg/kg in the data set with OVA-specific IgE worked out at 36.1%. The inhibition in vivo at 30 mg/kg in data set [1] is -122%.
`Cc1cccc2nc3c(c(C)nn3-c3ccccn3)c(N)c12` [Example 1-44, 3,5-Dimethyl-1-(2-pyridinyl)-1H-pyrazolo[3,4-b]quinolin-4-ylamine] showed a melting point of 252 to 255 °C. The inhibition in vivo at 30 mg/kg in the data set with IL-4 came to 68.2%. In the data set on IL-5, the inhibition in vivo at 30 mg/kg came out at 3.1%. Besides, in the data set with IFN-γ, the inhibition in vivo at 30 mg/kg was found to be 36.3%.
On to `Cc1nn(-c2ccccn2)c2[nH]c3ccc(Cl)cc3c(=O)c12` [Example 1-51, 6-Chloro-3-methyl-1-(2-pyridinyl)-1,9-dihydro-4H-pyrazolo[3,4-b]quinolin-4-one], for which the inhibition in vivo at 30 mg/kg in the data set on IL-4 was 31.9%; in the data set on IL-5, 53.7%; with IFN-γ it was -11.2%.
The corresponding values for `Cc1nn(-c2ncccn2)c2nc3ccccc3c(N)c12` [Example 1-65, 3-Methyl-1-(2-pyrimidinyl)-1H-pyrazolo[3,4-b]quinolin-4-ylamine hydrochloride] are 8.1%, 16.5% and -15.7%.
The like results for `Cc1nn(-c2cccnc2)c2[nH]c3ccccc3c(=O)c12` [Example 1-64, 3-Methyl-1-(3-pyridinyl)-1,9-dihydro-4H-pyrazolo[3,4-b]quinolin-4-one] were, in that order, 49.1%, 39.9% and -6.8%.
The corresponding values for `Cc1cccc2c(N)c3c(C)nn(-c4ccccn4)c3nc12` [Example 1-46, 3,8-Dimethyl-1-(2-pyridinyl)-1H-pyrazolo[3,4-b]quinolin-4-ylamine hydrochloride] are 80.4%, 5.2% and -132%.
Compound `CCOC(=O)c1cnc2c(c(C)nn2-c2ccccn2)c1O` [Example 1-1, Ethyl 4-hydroxy-3-methyl-1-(2-pyridinyl)-1H-pyrazolo[3,4-b]pyridine-5-carboxylate] showed a melting point of 166 to 169 °C. Further, the inhibition in vivo at 30 mg/kg in the data set with OVA-specific IgE was 46.3%. Besides, the inhibition in vivo at 30 mg/kg in data set [1] came out at 17.8%.
The corresponding values for `CNc1c2ccccc2nc2c1c(C)nn2-c1ccccn1.Cl` [Example 1-37, N-Methyl-N-[3-methyl-1-(2-pyridinyl)-1H-pyrazolo[3,4-b]quinolin-4-yl]amine hydrochloride] are 229 to 232 °C, 29.6% and 9.6%.
For the compound `Cc1cccnc1-n1nc(C)c2c(Cl)c3ccccc3nc21` [Example 1-56, 4-Chloro-3-methyl-1-(3-methyl-2-pyridinyl)-1H-pyrazolo[3,4-b]quinoline], the figures for the inhibition in vivo at 30 mg/kg in the data set with IL-4, in the data set with IL-5 and in the data set on IFN-γ were 23.7%, 12.2% and 12.2%, respectively.
In the case of `Cl.Nc1c2ccccc2nc2c1cnn2-c1ccccn1` [Example 1-67, 1-(2-Pyridinyl)-1H-pyrazolo[3,4-b]quinolin-4-ylamine hydrochloride], the melting point is 312 to 315 °C. Further, the inhibition in vivo at 30 mg/kg with OVA-specific IgE stood at 10.5%. Further, in data set [1], the inhibition in vivo at 30 mg/kg is -30.7%.
`COc1cccc2c(N)c3c(C)nn(-c4ccccn4)c3nc12` [Example 1-48, 8-Methoxy-3-methyl-1-(2-pyridinyl)-1H-pyrazolo[3,4-b]quinolin-4-ylamine hydrochloride]: the inhibition in vivo at 30 mg/kg is 31.6% in the data set with IL-4, 16.2% with IL-5 and -7.6% with IFN-γ.
`Cc1nn(-c2ccccn2)c2nc(O)cc(-c3ccccc3)c12` [Example 1-27, 3-Methyl-4-phenyl-1-(2-pyridinyl)-1H-pyrazolo[3,4-b]pyridin-6-ol]: the melting point was 195 to 196 °C. In the data set on OVA-specific IgE, the inhibition in vivo at 30 mg/kg stood at 24.3%. Further, in data set [1], the inhibition in vivo at 30 mg/kg is 27.1%.
Consider `Cc1cccc2c(N)c3c(C)nn(-c4ccc5ccccc5n4)c3nc12` [Example 1-66, 3,8-Dimethyl-1-(2-quinolinyl)-1H-pyrazolo[3,4-b]quinolin-4-ylamine], for which the inhibition in vivo at 30 mg/kg was determined as 27.1% with IL-4, 34.3% in the data set on IL-5 and 50% in the data set on IFN-γ.
With `Cc1cccnc1-n1nc(C)c2c(N)c3cccc(C)c3nc21` [Example 1-62, 3,8-Dimethyl-1-(3-methyl-2-pyridinyl)-1H-pyrazolo[3,4-b]quinolin-4-ylamine], the inhibition in vivo at 30 mg/kg was 19.4% in the data set on IL-4, 4.8% in the data set on IL-5 and -13.8% in the data set on IFN-γ.
The like results for `Cc1nn(Cc2ccccn2)c2[nH]c3ccccc3c(=O)c12` [Example 1-69, 3-Methyl-1-(2-pyridinylmethyl)-1,9-dihydro-4H-pyrazolo[3,4-b]quinolin-4-one] were, in that order, 19.4%, 50% and 8.3%.
Take `Cc1nn(-c2ccccn2)c2nc(O)c(Cc3ccccc3)c(C)c12` [Example 1-25, 5-Benzyl-3,4-dimethyl-1-(2-pyridinyl)-1H-pyrazolo[3,4-b]pyridin-6-ol]: the melting point is 208 to 209 °C. For the same compound, the inhibition in vivo at 30 mg/kg in the data set with OVA-specific IgE stood at 33.9%. The inhibition in vivo at 30 mg/kg in data set [1] amounted to 16.5%.
The corresponding values for `Cc1nn(-c2ccccn2)c2nc(-c3ccccc3)cc(O)c12` [Example 1-22, 3-Methyl-6-phenyl-1-(2-pyridinyl)-1H-pyrazolo[3,4-b]pyridin-4-ol] are 198 to 199 °C, 14% and -2.1%.
As for `COc1cc2[nH]c3c(c(C)nn3-c3ccccn3)c(=O)c2cc1OC` [Example 1-49, 6,7-Dimethoxy-3-methyl-1-(2-pyridinyl)-1,9-dihydro-4H-pyrazolo[3,4-b]quinolin-4-one], the inhibition in vivo at 30 mg/kg is 13.9% in the data set with IL-4, 11.8% with IL-5 and -9% with IFN-γ.
